Among the data in ChEMBL document CHEMBL1144095, “A new labdane diterpenoid from Renealmia alpinia collected in the Suriname rainforest” (1999) are IC12 values, retold here.

This assay relates to Saccharomyces cerevisiae. The experiment in a line: Antifungal activity against Saccharomyces cerevisiae. It is filed as functional.

Take `C=C1CC[C@H]2C(C)(C)CCC[C@]2(C)[C@H]1CC1OC(O)C=C1C(=O)O` (stereo partly specified): the IC12 came out at 150 µg/mL.
